“Also recorded” adds a separate entry of the source.
Key:
[1] = test system: pulmonary arterial endothelial cells (PAECs); assay: Western blot of mitochondrial marker TOM20 as measure of mitophagy; assay type: cell-based, human; conditions: ECs / PAEC
Description: (§1) Western blot. Cell lysates were resolved on a SDS PAGE pre-cast gel (Invitrogen) and resolved proteins were transferred on to a PVDF membrane for further detection of proteins using specific antibodies. Antibodies for SREBP1 were purchased from Santa Cruz Biotechnology (Cat #sc-365513) and Novus biological (Cat #NB100-2215). SCD antibody was purchased from Santa Cruz Biotechnology (Cat #sc-58420). Tom20 and LAMP1 antibodies were purchased from Cell Signaling (Cat #42406S and 15665S, respectively).
(§2) First, degradation of a mitochondrial marker (TOM20) was evaluated as a bio-chemical marker of mitophagy induction.

PAEC / ECs = assay: Immunofluorescence microscopy of Tom20 and lysosomal marker LAMP1 (mitophagy); assay type: cell-based, human; conditions: ECs
Description: Immunofluorescence Microscopy. Cells were fixed with 4% Formaldehyde (Electron Microscopy Sciences, #C993M24) and permeabilized in the presence of 0.1% Triton X-100 (Sigma). Full-length SREBP1 was stained using mouse monoclonal antibody from Santa Cruz Biotechnology (Cat #sc-365513). Whereas nuclear SREBP1 was detected using antibody from Novus biological (Cat #NB100-2215). […] Tom20 and LAMP1 antibodies were purchased from Cell Signaling (Cat #42406S and 15665S, respectively). Images were captured on an inverted fluorescent microscope (Leica).
as §2
Fixed cells were stained with Tom20 and Lamp1 and the fluorescence images were captured on a fluorescence microscope.

ECs = assay: Transmission electron microscopy for mitophagy; assay type: cell-based, human; conditions: 10 uM propranolol, 10 uM R-propranolol or 0.1 uM JW480 for 12 hours
Procedure: Transmission Electron Microscopy. […] Thin sections from these fixed cell blocks were visualized on Tecnai Spirit (ThermoFisher) TEM Microscope. Images captured were analyzed.
TEM evidence. […] ECs exposed to these drugs were fixed and the images were captured on a TEM.

SREBP1 = assay: Western blot of SREBP1, SCD and NCEH1 (SREBP1 activation); assay type: cell-based, human; conditions: western blot
Description: as §1, with “respectively). […]” for “respectively).”

[2] = test system: Sugen/hypoxia-induced PAH in rats; assay: Sugen/hypoxia (SuHx) rat model of PAH; assay type: in vivo
Procedure: FIGS. 10A-10C-R-propranolol attenuates rodent PAH. Sugen (20 mg/kg, IP) injection was administered to rats and then they were exposed to 3 weeks of hypoxia (10% FiO2) and then placed in normoxia (21% FiO2) for 4 weeks to develop severe pulmonary arterial hypertension (FIG. 10A is a schematic of the experimental procedure). Rats were then administered either r-propranolol (5 mg/kg/day, IP) for the last 4 weeks or r-propranolol (10 mg/kg/day, IP) for the last 2 weeks or vehicle for the last 4 weeks. Rats with vehicle exposure developed severe PAH at the end of the protocol as confirmed by right ventricular systolic pressures (RVSP; FIG. 10B) and surrogate measures of RV hypertrophy (RV/(LV+S); FIG. 10C).
FIGS. 15A-15M-R-propranolol attenuates rodent PAH. Sugen (20 mg/kg, IP) injection was administered to rats and then they were exposed to 3 weeks of hypoxia (10% FiO2) and then placed in normoxia (21% FiO2) for 4 weeks to develop severe pulmonary arterial hypertension (FIG. 15A is a schematic of the experimental procedure). Rats receiving Sugen (SuHx) for three weeks of 7 weeks were then administered either r-propranolol (5 mg/kg/day, IP) for the last 4 weeks or r-propranolol (10 mg/kg/day, IP) for the last 2 weeks or vehicle for the last 4 weeks. SuHx treated rats (but not controls) with vehicle exposure developed severe PAH at the end of the protocol as confirmed by right ventricular pressures (RVP; FIG. 15B) and right ventricular systolic pressures (RVSP; FIG. 15C, lane 1: control; lane 2: control+r-propranolol 5 mg; lane 3: SuHx 3 wk; lane 4: SuHx 7 wk; lane 5: SuHx+r-propranolol 5 mg; SuHx+r-propranolol 10 mg) and surrogate measures of RV hypertrophy (FIGS. 15D-15J). […] FIG. 15K show the PA thickness of SuHx treated rats with vehicle exposure vs r-propranolol exposure. FIG. 15L show the RV cross-sectional thickness of SuHx treated rats with vehicle exposure vs r-propranolol exposure.
R-propranolol attenuated rodent PAH. Rats were administered a one-time sugen (20 mg/kg, IP) injection and exposed to 3 weeks of hypoxia (10% FiO2) and then placed in normoxia (21% FiO2) for 4 weeks. […] In the last 4 week normoxic period, rats were administered either r-propranolol (5 mg/kg/day, IP) for the last 4 weeks or r-propranolol (10 mg/kg/day, IP) for the last 2 weeks or vehicle for the last 4 weeks. Rats with vehicle exposure developed severe PAH at the end of the protocol as confirmed by right ventricular systolic pressures (RVSP) and surrogate measures of RV hypertrophy (RV/(LV+S)).

HF-PH mice = assay: High-fat diet AKR/J HF-PH mouse model; assay type: in vivo; conditions: 4 weeks, implanted mini osmotic pump, vs vehicle
Description: FIG. 14: Using a mouse model fed a high-fat diet, AKR/J mice develop obesity, insulin resistance, heart failure with preserved ejection fraction, and pulmonary hypertension and are designated as “HF-PH mice”.
Using a mouse model fed a high-fat diet (Research Diets, New Brunswick, NJ) for 16-20 weeks, AKR/J mice (Jackson Laboratories, Bar Harbor, ME) develop obesity, insulin resistance, heart failure with preserved ejection fraction, and pulmonary hypertension. (Meng, et al., 2017; Arwood, et al., 2019).

beta-adrenergic receptor = conditions: cited from earlier work
[3] = 5 mg/kg/day IP for the last 4 weeks
[4] = 10 mg/kg/day IP for the last 2 weeks

## CC(C)NC[C@@H](O)COc1cccc2ccccc12 [R-propranolol]
[1]
  Tom20 levels (mitophagy): decreased Tom20 levels; also recorded: lower
PAEC / ECs
  mitophagy by immunofluorescence (Tom20/Lamp1): induce mitophagy; also recorded: Tom20 was mobilized to lysosome
ECs
  mitophagy by TEM (bilipid membrane formation around mitochondria): promoted mitophagy
SREBP1; ECs / PAEC
  SCD (SREBP1 target) levels: elevated
  SREBP1 levels (non-cleaved; decrease indicates cleavage and activation): reduce SREBP1 levels
SREBP1; ECs
  NCEH1 levels: higher
[2]; [3]
  RV hypertrophy (RV/(LV+S)): trended toward improvement
  RVSP: trended toward improvement
[2]; [4]
  RV hypertrophy (RV/(LV+S)): attenuated
  RVSP: attenuated
HF-PH mice
  right ventricular systolic pressure: significantly decreased
beta-adrenergic receptor
  beta-adrenergic receptor affinity, fold less than propranolol: 100 fold
